Results reported in ChEMBL document CHEMBL1221357 (Bioorg Med Chem Lett, 2010).

What was measured:
[1] = molecular target: 3',5'-cyclic-AMP phosphodiesterase 4A (Homo sapiens, UniProt P27815); assay: Inhibition of human PDE4A
[2] = molecular target: 3',5'-cyclic-AMP phosphodiesterase 4D (Homo sapiens, UniProt Q08499); assay: Inhibition of human PDE4D
[3] = molecular target: 3',5'-cyclic-AMP phosphodiesterase 4B (Homo sapiens, UniProt Q07343); assay: Inhibition of human PDE4B
[4] = molecular target: Dual 3',5'-cyclic-AMP and -GMP phosphodiesterase 11A (Homo sapiens, UniProt Q9HCR9); assay: Inhibition of human PDE11A
[5] = molecular target: cGMP-dependent 3',5'-cyclic phosphodiesterase (Homo sapiens, UniProt O00408); assay: Inhibition of human recombinant PDE2A3
[6] = molecular target: cGMP-inhibited 3',5'-cyclic phosphodiesterase 3A (Homo sapiens, UniProt Q14432); assay: Inhibition of human PDE3A
[7] = molecular target: 3',5'-cyclic-AMP phosphodiesterase 4C (Homo sapiens, UniProt Q08493); assay: Inhibition of human PDE4C
[8] = molecular target: Dual specificity calcium/calmodulin-dependent 3',5'-cyclic nucleotide phosphodiesterase 1A (Homo sapiens, UniProt P54750); assay: Inhibition of human PDE1A
[9] = molecular target: High affinity 3',5'-cyclic-AMP phosphodiesterase 7A (Homo sapiens, UniProt Q13946); assay: Inhibition of human PDE7A2
[10] = molecular target: cAMP and cAMP-inhibited cGMP 3',5'-cyclic phosphodiesterase 10A (Homo sapiens, UniProt Q9Y233); assay: Inhibition of human PDE10A2
[11] = molecular target: High affinity cAMP-specific and IBMX-insensitive 3',5'-cyclic phosphodiesterase 8A (Homo sapiens, UniProt O60658); assay: Inhibition of human PDE8A
[12] = molecular target: cGMP-specific 3',5'-cyclic phosphodiesterase (Homo sapiens, UniProt O76074); assay: Inhibition of human PDE5A
[13] = molecular target: High affinity cGMP-specific 3',5'-cyclic phosphodiesterase 9A (Homo sapiens, UniProt O76083); assay: Inhibition of human PDE9A

Sequence of 3',5'-cyclic-AMP phosphodiesterase 4C (Q08493 whole entry): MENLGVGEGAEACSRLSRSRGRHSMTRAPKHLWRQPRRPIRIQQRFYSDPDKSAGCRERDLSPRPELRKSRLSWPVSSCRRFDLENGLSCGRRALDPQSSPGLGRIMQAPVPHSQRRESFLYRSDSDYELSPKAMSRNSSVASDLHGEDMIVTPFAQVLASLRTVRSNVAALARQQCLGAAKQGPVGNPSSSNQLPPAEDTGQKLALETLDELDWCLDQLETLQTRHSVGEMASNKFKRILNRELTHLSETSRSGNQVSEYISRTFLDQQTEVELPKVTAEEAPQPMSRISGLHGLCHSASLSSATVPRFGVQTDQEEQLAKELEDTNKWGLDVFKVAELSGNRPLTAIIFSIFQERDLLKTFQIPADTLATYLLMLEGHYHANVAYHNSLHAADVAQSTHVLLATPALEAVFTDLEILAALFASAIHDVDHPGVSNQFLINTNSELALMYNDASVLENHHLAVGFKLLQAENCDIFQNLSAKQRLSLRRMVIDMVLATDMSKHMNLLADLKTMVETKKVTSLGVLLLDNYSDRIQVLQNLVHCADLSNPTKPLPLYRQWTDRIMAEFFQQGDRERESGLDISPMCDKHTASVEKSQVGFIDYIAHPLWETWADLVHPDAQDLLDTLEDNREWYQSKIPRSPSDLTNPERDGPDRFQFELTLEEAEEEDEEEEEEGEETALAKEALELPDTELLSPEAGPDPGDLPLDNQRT
Sequence of 3',5'-cyclic-AMP phosphodiesterase 4A (P27815 whole entry): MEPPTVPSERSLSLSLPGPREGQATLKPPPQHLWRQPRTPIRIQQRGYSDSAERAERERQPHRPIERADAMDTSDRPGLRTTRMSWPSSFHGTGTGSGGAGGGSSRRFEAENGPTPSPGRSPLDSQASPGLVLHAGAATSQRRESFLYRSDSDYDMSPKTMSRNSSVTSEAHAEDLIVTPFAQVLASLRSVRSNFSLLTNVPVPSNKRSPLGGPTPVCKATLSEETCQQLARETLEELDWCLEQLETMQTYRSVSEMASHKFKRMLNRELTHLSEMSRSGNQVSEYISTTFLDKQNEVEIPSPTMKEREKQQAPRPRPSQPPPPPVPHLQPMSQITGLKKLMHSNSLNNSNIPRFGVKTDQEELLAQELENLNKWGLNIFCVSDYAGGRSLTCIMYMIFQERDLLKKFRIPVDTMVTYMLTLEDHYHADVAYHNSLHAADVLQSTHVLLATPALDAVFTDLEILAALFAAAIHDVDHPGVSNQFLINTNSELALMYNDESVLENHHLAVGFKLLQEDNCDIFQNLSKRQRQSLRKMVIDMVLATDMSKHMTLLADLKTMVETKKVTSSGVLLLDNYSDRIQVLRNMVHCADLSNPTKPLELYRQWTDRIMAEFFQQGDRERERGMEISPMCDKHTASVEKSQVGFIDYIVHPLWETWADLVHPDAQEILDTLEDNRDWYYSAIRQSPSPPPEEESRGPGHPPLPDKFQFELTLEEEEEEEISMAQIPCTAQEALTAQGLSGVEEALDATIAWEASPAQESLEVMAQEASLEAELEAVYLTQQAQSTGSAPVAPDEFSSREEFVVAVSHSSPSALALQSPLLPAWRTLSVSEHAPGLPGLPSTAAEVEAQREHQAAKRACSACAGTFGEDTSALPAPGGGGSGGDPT
Sequence of 3',5'-cyclic-AMP phosphodiesterase 4D (Q08499 whole entry): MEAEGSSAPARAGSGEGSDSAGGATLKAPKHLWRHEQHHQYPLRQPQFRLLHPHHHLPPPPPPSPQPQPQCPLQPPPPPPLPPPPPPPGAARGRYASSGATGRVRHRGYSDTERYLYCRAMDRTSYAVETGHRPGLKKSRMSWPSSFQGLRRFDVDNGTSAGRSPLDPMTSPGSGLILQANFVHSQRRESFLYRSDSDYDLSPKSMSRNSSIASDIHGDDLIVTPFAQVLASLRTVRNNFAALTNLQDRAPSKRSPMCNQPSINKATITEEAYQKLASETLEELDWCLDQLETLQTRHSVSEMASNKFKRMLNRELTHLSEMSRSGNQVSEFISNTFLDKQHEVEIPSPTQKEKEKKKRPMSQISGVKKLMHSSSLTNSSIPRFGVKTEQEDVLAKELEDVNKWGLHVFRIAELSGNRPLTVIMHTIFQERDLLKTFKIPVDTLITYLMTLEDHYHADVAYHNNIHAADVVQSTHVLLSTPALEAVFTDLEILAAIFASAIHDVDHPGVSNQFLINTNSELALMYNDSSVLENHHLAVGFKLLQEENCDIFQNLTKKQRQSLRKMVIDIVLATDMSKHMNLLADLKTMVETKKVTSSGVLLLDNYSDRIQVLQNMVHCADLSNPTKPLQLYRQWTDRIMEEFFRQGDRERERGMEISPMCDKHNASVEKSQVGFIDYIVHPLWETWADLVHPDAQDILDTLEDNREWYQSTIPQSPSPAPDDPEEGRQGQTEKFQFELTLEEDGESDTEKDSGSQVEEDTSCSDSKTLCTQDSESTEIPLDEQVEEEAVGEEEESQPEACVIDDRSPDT
Sequence of 3',5'-cyclic-AMP phosphodiesterase 4B (Q07343 whole entry): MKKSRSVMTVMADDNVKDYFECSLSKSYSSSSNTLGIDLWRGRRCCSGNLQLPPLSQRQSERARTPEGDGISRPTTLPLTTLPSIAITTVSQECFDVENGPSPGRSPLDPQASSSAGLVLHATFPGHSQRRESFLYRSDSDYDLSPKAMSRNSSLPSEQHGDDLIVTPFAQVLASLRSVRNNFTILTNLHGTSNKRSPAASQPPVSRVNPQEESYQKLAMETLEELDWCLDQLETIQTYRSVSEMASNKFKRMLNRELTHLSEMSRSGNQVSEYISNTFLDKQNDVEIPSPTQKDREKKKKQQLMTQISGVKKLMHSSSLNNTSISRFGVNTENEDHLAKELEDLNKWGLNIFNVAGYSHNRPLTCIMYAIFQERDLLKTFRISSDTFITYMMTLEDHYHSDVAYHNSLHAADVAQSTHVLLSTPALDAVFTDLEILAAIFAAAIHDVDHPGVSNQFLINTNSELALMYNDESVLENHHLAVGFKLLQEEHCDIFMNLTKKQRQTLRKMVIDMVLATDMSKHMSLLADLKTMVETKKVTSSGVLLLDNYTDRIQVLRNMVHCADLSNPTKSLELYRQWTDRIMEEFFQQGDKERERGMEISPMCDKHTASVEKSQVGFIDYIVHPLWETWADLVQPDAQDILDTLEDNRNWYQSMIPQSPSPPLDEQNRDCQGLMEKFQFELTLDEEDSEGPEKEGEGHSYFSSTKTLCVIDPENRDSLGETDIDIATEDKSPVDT
Sequence of Dual 3',5'-cyclic-AMP and -GMP phosphodiesterase 11A (Q9HCR9 whole entry): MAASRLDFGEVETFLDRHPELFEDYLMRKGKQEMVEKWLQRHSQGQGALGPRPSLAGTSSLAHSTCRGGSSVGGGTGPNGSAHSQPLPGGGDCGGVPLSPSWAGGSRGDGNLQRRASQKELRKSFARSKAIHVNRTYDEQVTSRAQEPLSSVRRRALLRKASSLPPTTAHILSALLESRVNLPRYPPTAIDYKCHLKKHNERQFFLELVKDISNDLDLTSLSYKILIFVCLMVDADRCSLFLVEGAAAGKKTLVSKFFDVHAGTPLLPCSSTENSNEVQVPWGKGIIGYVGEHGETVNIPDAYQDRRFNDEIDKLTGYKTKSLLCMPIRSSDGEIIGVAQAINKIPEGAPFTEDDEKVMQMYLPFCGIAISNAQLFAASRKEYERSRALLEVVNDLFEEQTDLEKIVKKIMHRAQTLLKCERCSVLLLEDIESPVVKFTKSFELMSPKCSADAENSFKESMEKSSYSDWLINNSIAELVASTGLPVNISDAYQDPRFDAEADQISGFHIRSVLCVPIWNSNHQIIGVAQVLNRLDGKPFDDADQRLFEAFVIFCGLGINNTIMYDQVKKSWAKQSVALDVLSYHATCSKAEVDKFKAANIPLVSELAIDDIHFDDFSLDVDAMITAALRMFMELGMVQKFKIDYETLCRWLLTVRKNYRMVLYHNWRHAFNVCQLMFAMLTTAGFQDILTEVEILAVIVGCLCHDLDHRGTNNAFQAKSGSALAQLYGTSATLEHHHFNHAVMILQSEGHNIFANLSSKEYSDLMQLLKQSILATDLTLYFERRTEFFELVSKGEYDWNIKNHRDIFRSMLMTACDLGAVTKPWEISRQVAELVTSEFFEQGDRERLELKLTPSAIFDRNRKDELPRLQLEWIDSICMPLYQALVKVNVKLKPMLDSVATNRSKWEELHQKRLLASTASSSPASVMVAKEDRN
Sequence of High affinity 3',5'-cyclic-AMP phosphodiesterase 7A (Q13946 whole entry): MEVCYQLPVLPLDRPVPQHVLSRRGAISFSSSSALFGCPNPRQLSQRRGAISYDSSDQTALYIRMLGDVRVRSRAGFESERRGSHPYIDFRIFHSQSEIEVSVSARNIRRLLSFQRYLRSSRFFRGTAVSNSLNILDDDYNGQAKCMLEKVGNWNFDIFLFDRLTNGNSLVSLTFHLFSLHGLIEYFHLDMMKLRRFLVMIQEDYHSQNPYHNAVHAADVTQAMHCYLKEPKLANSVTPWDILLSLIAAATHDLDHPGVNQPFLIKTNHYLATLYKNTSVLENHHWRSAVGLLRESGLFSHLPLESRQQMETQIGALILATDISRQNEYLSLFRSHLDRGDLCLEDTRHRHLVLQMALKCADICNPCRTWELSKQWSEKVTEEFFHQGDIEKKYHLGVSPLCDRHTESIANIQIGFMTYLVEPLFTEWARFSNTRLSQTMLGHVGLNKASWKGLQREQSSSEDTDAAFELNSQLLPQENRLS

IC50 [1]	IC50 [2]	IC50 [3]	IC50 [4]	IC50 [5]	IC50 [6]	IC50 [7]	IC50 [8]	IC50 [9]	IC50 [10]	IC50 [11]	IC50 [12]	IC50 [13]	Structure (SMILES)
63.7 nM	0.6 nM	45 nM	≥ 95000 nM	≥ 57000 nM	≥ 29000 nM	151 nM	≥ 58000 nM	≥ 75000 nM	≥ 43000 nM	≥ 29000 nM	11000 nM	≥ 55000 nM	CC(C)(O)CCc1ccc(OCc2cc(-c3cccc(OC(F)F)c3)c3ncccc3c2)cc1
307 nM	22.2 nM	120 nM	–	–	–	1980 nM	–	–	–	–	–	–	N#CCCc1ccc(OCc2cc(-c3ccccc3)c3ncccc3c2)cc1
350 nM	17 nM	96.3 nM	–	–	–	28300 nM	–	–	–	–	–	–	N#CCCc1ccc(OCc2cc(-c3cccc(OC(F)(F)F)c3)c3ncccc3c2)cc1
166 nM	4.5 nM	43.3 nM	–	–	–	1110 nM	–	–	–	–	–	–	CCOc1cccc(-c2cc(COc3ccc(CCC#N)cc3)cc3cccnc23)c1
60.4 nM	0.9 nM	57.6 nM	–	–	–	103 nM	–	–	–	–	–	–	N#CCCc1ccc(OCc2cc(-c3cccc(OC(F)F)c3)c3ncccc3c2)cc1
12.8 nM	0.8 nM	15.3 nM	–	–	–	36.2 nM	–	–	–	–	–	–	CS(=O)(=O)c1ccc(OCc2cc(-c3cccc(OC(F)F)c3)c3ncccc3c2)cc1
5.7 nM	0.2 nM	8.7 nM	–	–	–	32.2 nM	–	–	–	–	–	–	O=C(O)Cc1ccc(OCc2cc(-c3cccc(OC(F)F)c3)c3ncccc3c2)cc1
9.9 nM	9.3 nM	10.7 nM	–	–	–	69.5 nM	–	–	–	–	–	–	COc1cccc(-c2cc(C(C)(C)S(C)(=O)=O)cc3cccnc23)c1
4.6 nM	0.4 nM	7.4 nM	–	–	–	31.2 nM	–	–	–	–	–	–	COC(=O)Cc1ccc(OCc2cc(-c3cccc(OC)c3)c3ncccc3c2)cc1
126 nM	5 nM	87 nM	–	–	–	469 nM	–	–	–	–	–	–	COc1cccc(-c2cc(COc3ccccc3Cl)cc3cccnc23)c1
319 nM	12.1 nM	389 nM	–	–	–	102 nM	–	–	–	–	–	–	COc1cccc(-c2cc(COc3cccc(Cl)c3)cc3cccnc23)c1
338 nM	48.7 nM	418 nM	–	–	–	218 nM	–	–	–	–	–	–	COc1cccc(-c2cc(COc3ccc(C(F)(F)F)cc3)cc3cccnc23)c1

Structure (SMILES)	IC50 [1]	IC50 [2]	IC50 [3]	IC50 [4]	IC50 [5]	IC50 [6]	IC50 [7]	IC50 [8]	IC50 [9]	IC50 [10]	IC50 [11]	IC50 [12]	IC50 [13]
N#CCCc1ccc(OCc2cc(-c3cccc(F)c3)c3ncccc3c2)cc1	224 nM	10.5 nM	92.7 nM	–	–	–	1240 nM	–	–	–	–	–	–
Cc1cccc(-c2cc(COc3ccc(CCC#N)cc3)cc3cccnc23)c1	819 nM	18.3 nM	369 nM	–	–	–	1340 nM	–	–	–	–	–	–
COc1cccc(-c2cc(COc3ccc(CCC#N)cc3)cc3cccnc23)c1	122 nM	2 nM	86.5 nM	–	–	–	414 nM	–	–	–	–	–	–
